Measured values from US8686037B2, “Use of piracetam for treating diabetic nephropathy” (Uniwersytet Jagiellonski, priority 2009, dated 2014).

Key:
albumin [1] = target: T1, albumin (Homo sapiens, UniProt P02768); test: Measurement of glycation by mass spectrometry (gain of molecular weight of albumin incubated with glucose); type: biochemical
Experimental: Glycation of protein in vitro was carried out according to following scheme: • 50 mg of protein (albumin, myoglobin) was dissolved in 1 ml 0.01M PBS (pH 7.4), containing D-glucose (0.1; 0.3; 0.5; 1M) and 5 mM toluene (as a bacteriostatic compound). The examined drug or aminoguanidine hydrochloride were added to samples at final concentrations from 0.1 mM to 5 mM. Samples were incubated at 37° C., in dark, for a specified period of time (1, 2, 3 and 4 weeks). Then, the protein was concentrated by ultrafiltration (30 min at 4000×g, 16° C.) with Amicon 50 cartridges (Millipore) with cut-off of 50 kDa (in case of albumin) or Amicon 10 cartridges with cut-off of 10 kDa (in case of myoglobin). The concentrated protein samples were dialyzed for 24 hrs, against distilled water, using dialysis membranes: Spectra Por (cut-off of 50 kDa for albumin and cut-off of 12-14 kDa for myoglobin). Then the samples were lyophilized overnight. • Control samples were prepared as above except of addition of glucose (control I) or drugs (control II). The method is based on a measurement of protein molecular weight (albumin, myoglobin), which is increased in proportion to the number of bound sugar moieties. […] Based on obtained MS spectra, average protein molecular weight was calculated using BioWorks 1.0 software (Finnigan, San Jose, USA).

[2] = Glycaemia in streptozotocin-induced diabetes model; type: in vivo, Sprague-Dawley rats; conditions: rats injected with STZ; 354±40 mg/kg/day in drinking water, 8 weeks
Experimental: (§1) All experimental studies using animals were approved by an Ethical Committee at the Jagiellonian University. Diabetes model was established by the single, intraperitoneal administration of streptozotocin (STZ, 75 mg/kg in citrate buffer, pH 4.5) to three-month Sprague-Dawley rats. In order to maintain glycaemia between 350 and 450 mg/dL, animals were treated twice a week by insulin (neutral protamine Hagedorn, NPH, 2-3 U/300 g of body weight).
(§2) The rats were divided into three groups (each one of n=4 animals): “control” group—animals injected with citrate buffer only (sham animals), “diabetes” group—STZ treated animals and “STZ+drug” group—STZ-rats treated with examined drug (354±40 mg/kg/day in drinking water). The experiment lasted 8 weeks. Animals were anesthetized and killed, and both the tissue samples (kidneys, heart, lungs, brain) as well as blood samples were harvested. The presence of AGEs was evaluated by immunohistochemistry, with use of specific antibodies (Abcam, USA).

AGEs = test: Immunohistochemistry for AGEs in renal glomeruli, streptozotocin-induced diabetes model; type: in vivo, Sprague-Dawley rats; conditions: STZ rats; 354±40 mg/kg/day in drinking water, 8 weeks; kidney
Experimental: as §1, §2

albumin [3] = target: T1, albumin; test: Measurement of albumin glycation using spectrofluorimetric method (Ex/Em 370/440 nm); type: biochemical; conditions: 5 mM; albumin incubated with glucose 0.5 M for 4 weeks
Experimental: Glycation of protein in vitro was carried out according to following scheme: • 50 mg of protein (albumin, myoglobin) was dissolved in 1 ml 0.01M PBS (pH 7.4), containing D-glucose (0.1; 0.3; 0.5; 1M) and 5 mM toluene (as a bacteriostatic compound). The examined drug or aminoguanidine hydrochloride were added to samples at final concentrations from 0.1 mM to 5 mM. Samples were incubated at 37° C., in dark, for a specified period of time (1, 2, 3 and 4 weeks). Then, the protein was concentrated by ultrafiltration (30 min at 4000×g, 16° C.) with Amicon 50 cartridges (Millipore) with cut-off of 50 kDa (in case of albumin) or Amicon 10 cartridges with cut-off of 10 kDa (in case of myoglobin). The concentrated protein samples were dialyzed for 24 hrs, against distilled water, using dialysis membranes: Spectra Por (cut-off of 50 kDa for albumin and cut-off of 12-14 kDa for myoglobin). Then the samples were lyophilized overnight. • Control samples were prepared as above except of addition of glucose (control I) or drugs (control II). Sugar residues are characterized by fluorescence—Ex/Em 370/440 nm The action of drug is expressed by a suppression of the intensity of fluorescence. Lyophylized protein samples were dissolved in 0.01M PBS (pH 7.4), at concentration 0.5 mg protein/1 ml of buffer. […] Fluorescence intensity was measured at 440 nm emission upon excitation of 370 nm.

T1 sequence (P02768 25-609, species assumed): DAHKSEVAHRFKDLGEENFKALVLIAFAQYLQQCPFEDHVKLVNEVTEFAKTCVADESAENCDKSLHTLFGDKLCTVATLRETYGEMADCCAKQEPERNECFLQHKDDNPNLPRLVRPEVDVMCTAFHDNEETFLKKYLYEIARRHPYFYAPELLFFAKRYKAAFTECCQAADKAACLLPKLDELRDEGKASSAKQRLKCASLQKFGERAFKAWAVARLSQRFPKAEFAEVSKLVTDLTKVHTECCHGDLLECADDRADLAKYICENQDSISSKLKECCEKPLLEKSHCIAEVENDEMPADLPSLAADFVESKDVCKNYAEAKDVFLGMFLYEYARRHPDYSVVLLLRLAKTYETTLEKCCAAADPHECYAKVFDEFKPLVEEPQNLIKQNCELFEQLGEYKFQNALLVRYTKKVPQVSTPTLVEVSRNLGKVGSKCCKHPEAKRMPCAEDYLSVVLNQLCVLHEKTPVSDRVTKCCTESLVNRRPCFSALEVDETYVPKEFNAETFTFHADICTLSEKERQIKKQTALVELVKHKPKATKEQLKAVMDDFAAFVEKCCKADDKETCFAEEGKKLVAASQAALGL

SMILES | inhibition of protein glycation (mass spectrometry method) (albumin [1]; 5 mM, albumin 50 mg/ml, glucose 0.5 M, 4 weeks, compared to mass of albumin incubated with glucose alone) | addition of glucose moieties to albumin (albumin [1]; in vitro model, FIG. 1, strength comparable to aminoguanidine) | glycaemia [2] | influence on glycaemia [2] | number of AGE-positive glomeruli (AGEs) | severity of changes in glomeruli (AGEs) | inhibition of glycation (spectrofluorimetric method) (albumin [3])
NC(=O)CN1CCCC1=O [tested compound, 2-(2-oxo-1-pyrrolidin-1-yl) acetamide] | 33% | inhibited dose-dependently | 429 ± 65.0 mg/dL | did not influence glycaemia | significantly reduced | significantly reduced | 45%
Cl.N=C(N)NN [aminoguanidine, aminoguanidine hydrochloride] |  |  |  |  |  |  | 67%
